The values that follow are results of earlier work, collected in patent publication US12551486B2, “Rivaroxaban formulation” (Shanghai Auson Pharmaceuticals Co., Ltd., priority 2021, dated 2026).

Structures are written as SMILES.

`O=C(NC[C@H]1CN(c2ccc(N3CCOCC3=O)cc2)C(=O)O1)c1ccc(Cl)s1` [Rivaroxaban, 5-chloro-N-[[(5S)-2-oxo-3-[4-(3-oxomorpholin-4-yl)phenyl]-1,3-oxazolidin-5-yl]methyl]thiophene-2-carboxamide]: the Solubility in water result is listed as “insoluble in water”.
